# According to patent US9023847B2, “Azaheterocyclic compounds” (Merck Patent GmbH, priority 2009, dated 2015):
# pIC50: −log10 of the molar value.
# Biological target: T1, P70S6K (T412E mutant, Millipore) (Homo sapiens, UniProt P23443, T412E)
# T1 construct: purchased Millipore
# Test: p70S6K enzyme assay
# Format: biochemical
# Settings: Table 1; 3 nM P70S6K, 24 μM ATP, 90 min at 25° C.; read-out: p70S6K inhibition (IC50)
# In short: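 T412E-mutant P70S6K (3 nM) with 24 μM ATP and 1 μM FITC-AHA-AKRRRLSSLRA-OH S6-derived peptide in 100 mM Hepes pH 7.5, 5 mM MgCl2, 1 mM DTT, 0.015% Brij; 90 min at 25° C, EDTA stop. Phosphorylated product and substrate peptide separated and quantified by microfluidic capillary electrophoresis (Caliper LabChip 3000).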
# T1 sequence (P23443 whole entry T412E): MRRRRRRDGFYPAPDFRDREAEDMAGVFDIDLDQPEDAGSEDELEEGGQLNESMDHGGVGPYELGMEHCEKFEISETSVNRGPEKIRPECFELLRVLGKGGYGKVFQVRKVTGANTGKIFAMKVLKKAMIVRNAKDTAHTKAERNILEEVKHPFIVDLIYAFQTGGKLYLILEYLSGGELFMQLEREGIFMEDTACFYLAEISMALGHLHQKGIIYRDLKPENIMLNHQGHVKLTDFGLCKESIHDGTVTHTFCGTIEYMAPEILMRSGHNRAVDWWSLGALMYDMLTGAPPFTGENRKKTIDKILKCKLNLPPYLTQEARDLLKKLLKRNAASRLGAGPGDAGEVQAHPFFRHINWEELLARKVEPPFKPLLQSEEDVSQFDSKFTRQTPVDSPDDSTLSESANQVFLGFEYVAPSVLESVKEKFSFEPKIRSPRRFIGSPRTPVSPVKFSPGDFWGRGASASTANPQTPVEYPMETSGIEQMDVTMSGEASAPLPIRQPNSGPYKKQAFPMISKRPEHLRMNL
row,pIC50,Structure (SMILES)
1,6.00 to 7.00,"CC(C)NC(=O)c1ccccc1Nc1ccnc2[nH]ccc12 [Example 155, N-Isopropyl-2-(1H-pyrrolo[2,3-b]pyridin-4-ylamino)-benzamide]"

# Same assay, conditions: class symbol; 3 nM P70S6K, 24 μM ATP; read-out: IC50 (p70S6K)
row,pIC50,Structure (SMILES)
1,> 7.00,"CC(C)C[C@@H](CO)NC(=O)c1ccsc1Nc1ccnc2[nH]ccc12 [Example 117, 2-(1H-Pyrrolo[2,3-b]pyridin-4-ylamino)-thiophene-3-carboxylic acid ((S)-1-hydroxymethyl-3-methyl-butyl)-amide]"
2,> 7.00,"O=C(NCCc1cccc(F)c1)c1sccc1Nc1ccnc2[nH]ccc12 [Example 22, 3-(1H-Pyrrolo[2,3-b]pyridin-4-ylamino)-thiophene-2-carboxylic acid [2-(3-fluoro-phenyl)-ethyl]-amide]"
3,> 7.00,"O=C(Nc1cccc(CNC(=O)c2sccc2Nc2ccnc3[nH]ccc23)c1)c1ccnc(N2CCCC2)c1 [Example 161, 2-Pyrrolidin-1-yl-N-[3-({[3-(1H-pyrrolo[2,3-b]pyridin-4-ylamino)-thiophene-2-carbonyl]-amino}-methyl)-phenyl]-isonicotinamide]"
4,> 7.00,"O=C(NCCNCc1ccccc1OC(F)(F)F)c1sccc1Nc1ccnc2[nH]ccc12 [Example 48, 3-(1H-Pyrrolo[2,3-b]pyridin-4-ylamino)-thiophene-2-carboxylic acid [2-(2-trifluoromethoxy-benzylamino)-ethyl]amide]"
5,> 7.00,"O=C(NCCc1cccs1)c1sccc1Nc1ccnc2[nH]ccc12 [Example 21, 3-(1H-Pyrrolo[2,3-b]pyridin-4-ylamino)-thiophene-2-carboxylic acid (2-thiophen-2-yl-ethyl)-amide]"
6,> 7.00,"O=C(NCCNCc1cccc(OC(F)(F)F)c1)c1sccc1Nc1ccnc2[nH]ccc12 [Example 50, 3-(1H-Pyrrolo[2,3-b]pyridin-4-ylamino)-thiophene-2-carboxylic acid [2-(3-trifluoromethoxy-benzylamino)-ethyl]-amide]"
7,> 7.00,"CN(C)CC(NC(=O)c1sccc1Nc1ccnc2[nH]ccc12)c1ccc(F)cc1 (stereo not drawn) [Example 166, 3-(1H-Pyrrolo[2,3-b]pyridin-4-ylamino)-thiophene-2-carboxylic acid [2-dimethylamino-1-(4-fluoro-phenyl)-ethyl]-amide]"
8,> 7.00,"N#CC(NC(=O)c1ccsc1Nc1ccnc2[nH]ccc12)c1ccccc1 (stereo not drawn) [Example 116, 2-(1H-Pyrrolo[2,3-b]pyridin-4-ylamino)-thiophene-3-carboxylic acid (cyano-phenyl-methyl)-amide]"
9,> 7.00,"COc1ccc(CNCCNC(=O)c2sccc2Nc2ccnc3[nH]ccc23)cc1Cl [Example 137, 3-(1H-Pyrrolo[2,3-b]pyridin-4-ylamino)-thiophene-2-carboxylic acid [2-(3-chloro-4-methoxy-benzylamino)-ethyl]-amide]"
10,6.00 to 7.00,"O=C(NCc1ccccn1)c1sccc1Nc1ccnc2[nH]ccc12 [Example 7, 3-(1H-Pyrrolo[2,3-b]pyridin-4-ylamino)-thiophene-2-carboxylic acid (pyridin-2-ylmethyl)-amide]"
11,> 7.00,"COc1ccccc1C(CN)NC(=O)c1ccsc1Nc1ccnc2[nH]ccc12 (stereo not drawn) [Example 109, 2-(1H-Pyrrolo[2,3-b]pyridin-4-ylamino)-thiophene-3-carboxylic acid [2-amino-1-(2-methoxy-phenyl)-ethyl]-amide]"
12,> 7.00,"N#CC[C@@H](NC(=O)c1ccsc1Nc1ccnc2[nH]ccc12)c1ccccc1 [Example 139, 2-(1H-Pyrrolo[2,3-b]pyridin-4-ylamino)-thiophene-3-carboxylic acid ((R)-2-cyano-1-phenyl-ethyl)-amide]"
13,> 7.00,"NC(CNC(=O)c1sccc1Nc1ccnc2[nH]ccc12)c1ccccc1 (stereo not drawn) [Example 78, 3-(1H-Pyrrolo[2,3-b]pyridin-4-ylamino)-thiophene-2-carboxylic acid (2-amino-2-phenyl-ethyl)-amide]"

# Second part, the compound before the results:
row,Structure (SMILES),pIC50
1,"COc1cccc(CCNC(=O)c2sccc2Nc2ccnc3[nH]ccc23)c1 [Example 26, 3-(1H-Pyrrolo[2,3-b]pyridin-4-ylamino)-thiophene-2-carboxylic acid [2-(3-methoxy-phenyl)-ethyl]-amide]",> 7.00
2,"O=C(NCCSCc1ccccc1)c1sccc1Nc1ccnc2[nH]ccc12 [Example 66, 3-(1H-Pyrrolo[2,3-b]pyridin-4-ylamino)-thiophene-2-carboxylic acid (2-benzylsulfanyl-ethyl)-amide]",6.00 to 7.00
3,"O=C(NCCNc1ccccc1)c1sccc1Nc1ccnc2[nH]ccc12 [Example 34, 3-(1H-Pyrrolo[2,3-b]pyridin-4-ylamino)-thiophene-2-carboxylic acid (2-phenylamino-ethyl)-amide]",> 7.00
4,"CC(CO)NC(=O)c1sccc1Nc1ccnc2[nH]ccc12 (stereo not drawn) [Example 10, 3-(1H-Pyrrolo[2,3-b]pyridin-4-ylamino)-thiophene-2-carboxylic acid (2-hydroxy-1-methyl-ethyl)-amide]",6.00 to 7.00
5,"CC(=O)NCCCCNC(=O)c1sccc1Nc1ccnc2[nH]ccc12 [Example 32, 3-(1H-Pyrrolo[2,3-b]pyridin-4-ylamino)-thiophene-2-carboxylic acid (4-acetylamino-butyl)-amide]",6.00 to 7.00
6,"O=C(NCCc1cccc(Cl)c1)c1sccc1Nc1ccnc2[nH]ccc12 [Example 20, 3-(1H-Pyrrolo[2,3-b]pyridin-4-ylamino)-thiophene-2-carboxylic acid [2-(3-chloro-phenyl)-ethyl]-amide]",> 7.00
7,"NC[C@@H](NC(=O)c1ccsc1Nc1ccnc2[nH]ccc12)c1ccccc1 [Example 140, 2-(1H-Pyrrolo[2,3-b]pyridin-4-ylamino)-thiophene-3-carboxylic acid ((S)-2-amino-1-phenyl-ethyl)-amide]",> 7.00
8,"O=C(N[C@@H](CO)[C@@H](O)c1ccccc1)c1sccc1Nc1ccnc2[nH]ccc12 [Example 84, 3-(1H-Pyrrolo[2,3-b]pyridin-4-ylamino)-thiophene-2-carboxylic acid ((1S,2S)-2-hydroxy-1-hydroxymethyl-2-phenyl-ethyl)-amide]",5.00 to 6.00
9,"O=C(NCCc1ccc(F)cc1)c1sccc1Nc1ccnc2[nH]ccc12 [Example 23, 3-(1H-Pyrrolo[2,3-b]pyridin-4-ylamino)-thiophene-2-carboxylic acid [2-(4-fluoro-phenyl)-ethyl]-amide]",> 7.00
10,"O=C(NCCNCc1ccc(F)c(Cl)c1)c1sccc1Nc1ccnc2[nH]ccc12 [Example 63, 3-(1H-Pyrrolo[2,3-b]pyridin-4-ylamino)-thiophene-2-carboxylic acid [2-(3-chloro-4-fluoro-benzylamino)-ethyl]-amide]",> 7.00
11,"NCC(NC(=O)c1sccc1Nc1ccnc2[nH]ccc12)c1ccccc1 (stereo not drawn) [Example 77, 3-(1H-Pyrrolo[2,3-b]pyridin-4-ylamino)-thiophene-2-carboxylic acid (2-amino-1-phenyl-ethyl)-amide]",> 7.00
12,"O=C(NCCNC(=O)c1sccc1Nc1ccnc2[nH]ccc12)c1ccccc1 [Example 70, 3-(1H-Pyrrolo[2,3-b]pyridin-4-ylamino)-thiophene-2-carboxylic acid (2-benzoylamino-ethyl)-amide]",> 7.00
13,"Nc1cccc(CNC(=O)c2sccc2Nc2ccnc3[nH]ccc23)c1 [Example 87, 3-(1H-Pyrrolo[2,3-b]pyridin-4-ylamino)-thiophene-2-carboxylic acid 3-amino-benzylamide]",> 7.00
